According to the NIST ThermoML archive (doi:10.1021/je9002515):
Numbers after ± are expanded uncertainties.

Experiment: xn = mol fraction of the nth substance listed
Conditions: 101 kPa, Liquid, Alternating current cell with electrodes

CNC(C)=O [N-methylacetamide] + CC(=O)N(C)C
electrical conductivity [S/m]
Conditions	303.15 K	313.15 K	323.15 K	333.15 K	343.15 K	353.15 K	363.15 K	373.15 K	383.15 K	393.15 K
x1 = 0.1041	0.0107 ± 0.0017	0.0131 ± 0.0021	0.0151 ± 0.0024	0.0175 ± 0.0028	0.0202 ± 0.0032	0.0234 ± 0.0037	0.0269 ± 0.0043	0.0305 ± 0.0049	0.0344 ± 0.0055	0.0396 ± 0.0063
x1 = 0.2077	0.0173 ± 0.0028	0.0201 ± 0.0032	0.023 ± 0.0037	0.0261 ± 0.0042	0.0299 ± 0.0048	0.0349 ± 0.0056	0.0413 ± 0.0066	0.049 ± 0.0078	0.0567 ± 0.0091	0.0641 ± 0.01
x1 = 0.3056	0.0162 ± 0.0026	0.0192 ± 0.0031	0.0229 ± 0.0037	0.0273 ± 0.0044	0.0331 ± 0.0053	0.0403 ± 0.0064	0.0495 ± 0.0079	0.06 ± 0.0096	0.0708 ± 0.011	0.081 ± 0.013
x1 = 0.4019	0.0203 ± 0.0032	0.0241 ± 0.0039	0.0285 ± 0.0046	0.0335 ± 0.0054	0.0394 ± 0.0063	0.0464 ± 0.0074	0.0548 ± 0.0088	0.0646 ± 0.01	0.075 ± 0.012	0.0851 ± 0.014
x1 = 0.506	0.0239 ± 0.0038	0.0287 ± 0.0046	0.034 ± 0.0054	0.0397 ± 0.0063	0.0459 ± 0.0073	0.0532 ± 0.0085	0.0619 ± 0.0099	0.0714 ± 0.011	0.0813 ± 0.013	0.0907 ± 0.015
x1 = 0.6088	0.0215 ± 0.0034	0.0262 ± 0.0042	0.0315 ± 0.005	0.0373 ± 0.006	0.0436 ± 0.007	0.051 ± 0.0081	0.0597 ± 0.0096	0.0702 ± 0.011	0.0816 ± 0.013	0.0934 ± 0.015
x1 = 0.6985	0.0328 ± 0.0052	0.04 ± 0.0064	0.0485 ± 0.0078	0.0584 ± 0.0093	0.0688 ± 0.011	0.0798 ± 0.013	0.0922 ± 0.015	0.106 ± 0.017	0.119 ± 0.019	0.131 ± 0.021
x1 = 0.7974	0.0314 ± 0.005	0.039 ± 0.0062	0.0477 ± 0.0076	0.0571 ± 0.0091	0.0666 ± 0.011	0.076 ± 0.012	0.0854 ± 0.014	0.0948 ± 0.015	0.105 ± 0.017	0.118 ± 0.019
x1 = 0.9001	0.0329 ± 0.0053	0.0421 ± 0.0067	0.0528 ± 0.0084	0.0645 ± 0.01	0.0778 ± 0.012	0.0929 ± 0.015	0.11 ± 0.018	0.127 ± 0.02	0.146 ± 0.023	0.167 ± 0.027
x1 = 1	0.0324 ± 0.0052	0.0447 ± 0.0072	0.0614 ± 0.0098	0.0775 ± 0.012	0.105 ± 0.017	0.129 ± 0.021	0.165 ± 0.026	0.192 ± 0.031	0.219 ± 0.035	0.247 ± 0.04
